Columns and labels:
Assay type in all cases: in vivo
[1] = test system: Rhipicephalus microplus larvae (strain Parkhurst, resistant against synthetic pyrethroids); assay: Rhipicephalus (Boophilus) microplus in-vitro contact test, larval cattle tick; conditions: 5 μg/cm^2 (=500 g/ha), after 48 hours, read-out: efficacy (larvae dead or moribund)
Outline: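 Efficacy is read at 48 h from negative geotactic behaviour after larvae are patted to the tube bottom, expressed as percentage dead or moribund. Larvae (20-50) sit in glass tubes whose walls carry an evaporated acetone film of compound (900 ppm corresponds to 5 μg/cm^2), kept at 27° C., 85% relative humidity.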

[2] = test system: adult engorged female ticks (Rhipicephalus microplus); assay: Rhipicephalus (Boophilus) microplus injection test; conditions: 168 h, 4 μg/animal, egg deposition after 7 days, read-out: efficacy (infertile eggs)
Protocol: Rhipicephalus (Boophilus) Microplus—Injection Test
(§1) Solvent: dimethyl sulfoxide
To produce a suitable preparation of active compound, 10 mg of active compound are dissolved in 0.5 mL solvent, and the concentrate is diluted with solvent to the desired concentration.
Five adult engorged female ticks (Rhipicephalus microplus) are injected with 1 μL compound solution into the abdomen. The ticks are transferred into replica plates and incubated in a climate chamber.
After 7 days egg deposition of fertile eggs is monitored. Eggs where fertility is not visible are stored in a climate chamber till hatching after about 42 days. An efficacy of 100% means all eggs are infertile; 0% means all eggs are fertile.

[3] = test system: adult unfed cat fleas (Ctenocephalides felis); assay: Ctenocephalides felis oral test; conditions: 48 h
Protocol: Ctenocephalides felis—Oral Test
as §1
To produce a suitable preparation of active compound, 10 mg of active compound are dissolved in 0.5 mL solvent, and the concentrate is diluted with cattle blood to the desired concentration.
Approximately 20 adult unfed cat fleas (Ctenocephalides felis) are placed in flea chambers. The blood chamber, sealed with parafilm on the bottom, are filled with cattle blood supplied with compound solution and placed on the gauze covered top of the flea chamber, so that the fleas are able to suck the blood. The blood chamber is heated to 37° C. whereas the flea chamber is kept at room temperature.
After 2 days mortality in % is determined. 100% means all the fleas have been killed; 0% means none of the fleas have been killed.

[4] = test system: adult brown dog ticks (Rhipicephalus sanguineus); assay: Rhipicephalus sanguineus in-vitro contact test with adult brown dog ticks; conditions: 5 μg/cm^2 (=500 g/ha), after 48 hours, read-out: efficacy (ticks dead or moribund)
Protocol: Rhipicephalus sanguineus—In-Vitro Contact Tests with Adult Brown Dog Ticks
(§2) 9 mg compound is solved in 1 mL acetone and diluted with acetone to the desired concentration. 250 μL of the test solution is filled in 25 mL glass test tubes and homogeneously distributed on the inner walls by rotation and tilting on a shaking device (2 h at 30 rpm). With a compound concentration of 900 ppm, an inner surface of 44.7 cm^2 and a homogeneous distribution, a dose of 5 μg/cm^2 is achieved.
(§3) After the solvent has evaporated, each test tube is filled with 5-10 adult brown dog ticks (Rhipicephalus sanguineus), closed with a perforated lid and incubated in a lying position at room temperature and relative humidity. After 48 hours efficacy is determined. The ticks are patted on the ground of the tubes and are incubated on a heating plate at 45-50° C. for at most 5 minutes. Immotile or uncoordinated moving ticks, which are not able to escape the heat by climbing upwards, are marked as dead or moribund.
An efficacy of 100% means all ticks are dead or moribund; 0% means no ticks are dead or moribund.

[5] = test system: green peach aphid (Myzus persicae); assay: Myzus persicae oral test; conditions: 120 h
Protocol: Myzus persicae—oral test • Solvent: 100 parts by weight acetone
To produce a suitable preparation of active compound, 1 part by weight of active compound is mixed with the stated amount of solvent, and the concentrate is diluted with water to the desired concentration. 50 μL compound solution is filled in microtiter plates and 150 μL IPL41 insect medium (33%+15% sugar) is added to obtain a total volume of 200 μL per well. Afterwards the plates are sealed with parafilm through which a mixed population of the green peach aphid (Myzus persicae) can suck on the compound preparation.
After 5 days mortality in % is determined. 100% means all aphids have been killed and 0% means none of the aphids have been killed.

[6] = test system: fall armyworm larvae (Spodoptera frugiperda); assay: Spodoptera frugiperda spray test (maize leaf sections); conditions: 168 h
Outline: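 Maize leaf sections sprayed with compound in acetone/dimethylformamide, diluted in water with 1000 ppm alkylarylpolyglycol ether emulsifier. Dried sections infested with fall armyworm larvae. Mortality (%) scored after 7 days; 100% = all caterpillars killed.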

[7] = test system: larvae of the banded cucumber beetle (Diabrotica balteata); assay: Diabrotica balteata spray test; conditions: 168 h, 100 g/ha (=32 μg/well), wheat seeds, after 7 days, read-out: efficacy (seedling growth)
Outline: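 Wheat seeds germinated 1 day on agar were sprayed with compound in acetone/dimethylformamide with alkylarylpolyglycol ether emulsifier, diluted in emulsifier-containing water. Each unit then received 10-20 larvae, and % efficacy was scored after 7 days.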

[8] = test system: adult cat fleas (Ctenocephalides felis); assay: Ctenocephalides felis in-vitro contact test, adult cat flea; conditions: 5 μg/cm^2 (=500 g/ha), after 48 hours
Protocol: Ctenocephalides felis—In-Vitro Contact Tests Adult Cat Flea
as §2
as §3, with “cat fleas (Ctenocephalides felis),” for “brown dog ticks (Rhipicephalus sanguineus),”, “fleas” for “ticks”, “fleas,” for “ticks,”
An efficacy of 100% means all fleas are dead or moribund; 0% means no fleas are dead or moribund.

[9] = test system: green peach aphid (Myzus persicae); assay: Myzus persicae spray test; conditions: foliar, 120 h, Chinese cabbage leaf disks, after 5 days
Outline: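 Chinese cabbage leaf discs infested with all instars of the aphid were sprayed with compound prepared in acetone/DMF and diluted in water containing 1000 ppm emulsifier. Mortality (%) was scored after 5 days, 100% meaning all aphids killed and 0% none.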

[10] = test system: larvae of the southern green stink bug (Nezara viridula); assay: Nezara viridula spray test; conditions: in Hordeum vulgare, 96 h
Outline: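 Barley plants sprayed with compound in acetone/dimethylformamide, diluted in water with 1000 ppm alkylarylpolyglycol ether emulsifier, then infested with Nezara viridula larvae. Percent mortality read after 4 days (100% = all killed, 0% = none).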

SMILES	pest or weed control at 5 µg/cm2 [1]	pest or weed control at 0.004 mg [2]	mortality at 100 ppm [3]	pest or weed control at 5 µg/cm2, 500 g/ha [4]	mortality at 4 ppm [5]	mortality at 100 g/ha [6]	pest or weed control at 32 µg/disc, 100 g/ha [7]	efficacy (fleas dead or moribund) [8]	mortality at 100 g/ha [9]	mortality at 500 g/ha [10]
COCCN(C)C(=O)c1cnc(-n2nc(C)nc2[C@H](C)NC(=O)c2cc(C(F)(F)F)cc(C(F)(F)F)c2)s1 [I-3]	100%	100%	80%	100%	90%	100%	–	–	–	–
Cc1nc([C@H](C)NC(=O)c2cc(C(F)(F)F)cc(C(F)(F)F)c2)n(-c2ncc(C(=O)N(C)C3CC3)s2)n1 [I-7]	100%	100%	100%	100%	100%	100%	100%	–	–	–
Cc1nc([C@H](C)NC(=O)c2cc(C(F)(F)F)cc(C(F)(F)F)c2)n(-c2ncc(C(=O)N(C)CC(C)C)s2)n1 [I-8]	100%	100%	100%	100%	100%	100%	100%	–	–	–
Cc1nc([C@H](C)NC(=O)c2cc(C(F)(F)F)cc(C(F)(F)F)c2)n(-c2ncc(C(=O)N(C)CC(F)(F)F)s2)n1 [I-11]	100%	100%	100%	100%	100%	100%	100%	–	–	–
Cc1nc([C@H](C)NC(=O)c2cc(Cl)cc(Br)c2)n(-c2ncc(C#N)s2)n1 [I-12]	100%	100%	100%	100%	–	100%	100%	–	–	–
Cc1nc([C@H](C)NC(=O)c2cc(Br)cc(Br)c2)n(-c2ncc(C#N)s2)n1 [I-13]	100%	100%	100%	100%	–	83%	100%	–	–	–
Cc1nc([C@H](C)NC(=O)c2cc(Br)cc(C#N)c2)n(-c2ncc(C#N)s2)n1 [I-15]	90%	100%	100%	100%	–	83%	100%	100%	–	–
Cc1nc([C@H](C)NC(=O)c2cc(Br)cc(OC(F)(F)F)c2)n(-c2ncc(C#N)s2)n1 [I-17]	100%	100%	100%	100%	100%	100%	100%	80%	–	–
Cc1nc([C@H](C)NC(=O)c2cc(Cl)cc(C(F)(F)C(F)(F)F)c2)n(-c2ncc(C#N)s2)n1 [I-19]	100%	100%	100%	80%	–	100%	100%	–	–	–
Cc1nc([C@H](C)NC(=O)c2cc(Cl)nc(C(F)(F)F)c2)n(-c2ncc(C#N)s2)n1 [I-20, 2-chloro-N-{(1S)-1-[1-(5-cyano-1,3-thiazol-2-yl)-3-methyl-1H-1,2,4-triazol-5-yl]ethyl}-6-(trifluoromethyl)isonicotinamide]	100%	100%	100%	100%	–	–	100%	–	–	–
Cc1nc([C@H](C)NC(=O)c2cc(Cl)cc(C(F)(F)F)c2)n(-c2ncc(C(=O)N(C)CC#N)s2)n1 [I-23]	100%	100%	90%	100%	100%	83%	100%	100%	90%	–
CC(NC(=O)c1cc(OC(F)(F)F)cc(C2CC2)c1)c1ncnn1-c1ncc(C#N)s1 (stereo not shown) [I-30]	100%	100%	100%	100%	100%	100%	100%	–	–	–
C[C@H](NC(=O)c1cc(I)cc(OC(F)F)c1)c1ncnn1-c1ncc(C#N)s1 [I-38]	100%	–	–	80%	–	–	100%	90%	–	–
CNC(=O)c1cnc(-n2nc(C)nc2[C@H](C)NC(=O)c2cc(Cl)cc(C(F)(F)F)c2)s1 [I-69]	80%	100%	–	80%	100%	100%	100%	90%	90%	–
Cc1nc([C@H](C)NC(=O)c2cc(Br)cc(Br)c2)n(-c2ncc(C(=O)N(C)CC#N)s2)n1 [I-72]	100%	–	–	100%	100%	100%	100%	80%	–	–
Cc1nc([C@H](C)NC(=O)c2cc(Br)cc(OC(F)(F)F)c2)n(-c2ncc(C(=O)N(C)CC#N)s2)n1 [I-125]	100%	–	–	80%	–	100%	100%	100%	90%	100%

Source: patent publication US20230065953A1, “NOVEL HETEROARYL-TRIAZOLE COMPOUNDS AS PESTICIDES” (Bayer Aktiengesellschaft, priority 2019, published 2023)
